Measured values from patent publication US9469650B2, “Melampomagnolide B derivatives” (BOARD OF TRUSTEES OF THE UNIVERSITY OF ARKANSAS, priority 2013, dated 2016).

Experiments:
CCRF-CEM = assay: panel of 60 human tumor cell lines, growth inhibition (Leukemia); conditions: Homo sapiens
LOX IMVI = assay: panel of 60 human tumor cell lines, growth inhibition (Melanoma); conditions: Homo sapiens
M14 = assay: as above; conditions: Homo sapiens
SK-MEL-2 = assay: as above; conditions: Homo sapiens
SF-268 = assay: panel of 60 human tumor cell lines, growth inhibition (CNS Cancer); conditions: Homo sapiens
SW-620 = assay: panel of 60 human tumor cell lines, growth inhibition (Colon Cancer); conditions: Homo sapiens
CAKI-1 = assay: panel of 60 human tumor cell lines, growth inhibition (Renal Cancer); conditions: Homo sapiens
TK-10 = assay: as above; conditions: Homo sapiens
MCF7 = assay: panel of 60 human tumor cell lines, growth inhibition (Breast Cancer); conditions: Homo sapiens
MDA-MB-231/ATCC = assay: as above; conditions: Homo sapiens
IGROV1 = assay: panel of 60 human tumor cell lines, growth inhibition (Ovarian Cancer); conditions: Homo sapiens
OVCAR-5 = assay: as above; conditions: Homo sapiens
OVCAR-8 = assay: as above; conditions: Homo sapiens
SK-OV-3 = assay: as above; conditions: Homo sapiens
A549/ATCC = assay: panel of 60 human tumor cell lines, growth inhibition (Non-Small Cell Lung Cancer); conditions: Homo sapiens, A549, read-out: LC50
NCI-H23 = assay: as above; conditions: Homo sapiens
NCI-H522 = assay: as above; conditions: Homo sapiens

Compound `C=C1C(=O)O[C@H]2[C@H]1CC/C(COC(=O)OCCCN1CCCCC1)=C\CC[C@@]1(C)O[C@@H]21` [JVM 2-26] has a GI50 (CCRF-CEM) of 1.78 µM, a CC50 (CCRF-CEM; read-out: LC50) of 63.5 µM and an IC (TGI) (CCRF-CEM; read-out: TGI) of 5.72 µM. The GI50 (LOX IMVI) was 3.15 µM, the CC50 (LOX IMVI; read-out: LC50) was 37.8 µM and the IC (TGI) (LOX IMVI; read-out: TGI) was 11.7 µM. The GI50 (M14; M14) was 3.85 µM, the CC50 (M14; M14, read-out: LC50) was 41.1 µM and the IC (TGI) (M14; M14, read-out: TGI) was 15.5 µM. The GI50 (SK-MEL-2; SK-MEL-2) was 11.2 µM, the CC50 (SK-MEL-2; SK-MEL-2, read-out: LC50) was 55.8 µM and the IC (TGI) (SK-MEL-2; SK-MEL-2, read-out: TGI) was 25.1 µM. For the same compound, the GI50 (SF-268; SF-268) was 6.14 µM, the CC50 (SF-268; SF-268, read-out: LC50) was 53.2 µM and the IC (TGI) (SF-268; SF-268, read-out: TGI) was 20.6 µM. The GI50 (SW-620; SW-620, SW-620) was 2.23 µM, the CC50 (SW-620; SW-620, read-out: LC50) was 37.3 µM and the IC (TGI) (SW-620; SW-620, read-out: TGI) was 8.74 µM. It also gave a GI50 (CAKI-1; CAKI-1) of 2.19 µM, a CC50 (CAKI-1; CAKI-1, read-out: LC50) of 34.5 µM and an IC (TGI) (CAKI-1; CAKI-1, read-out: TGI) of 11.9 µM. For the same compound, the GI50 (TK-10; TK-10, TK-10) was 2.03 µM, the CC50 (TK-10; TK-10, read-out: LC50) was 25.5 µM and the IC (TGI) (TK-10; TK-10, read-out: TGI) was 6.82 µM. For the same compound, the GI50 (MCF7; MCF7, MCF7) was 2.3 µM, the CC50 (MCF7; MCF7, read-out: LC50) was 50.8 µM and the IC (TGI) (MCF7; MCF7, read-out: TGI) was 10.7 µM. It also gave a GI50 (MDA-MB-231/ATCC; MDA-MB-231) of 3.73 µM, a CC50 (MDA-MB-231/ATCC; MDA-MB-231, read-out: LC50) of 49.4 µM and an IC (TGI) (MDA-MB-231/ATCC; MDA-MB-231, read-out: TGI) of 16.2 µM. It also gave a GI50 (IGROV1; IGROV-1) of 13.2 µM, a CC50 (IGROV1; IGROV-1, read-out: LC50) of 76.3 µM and an IC (TGI) (IGROV1; IGROV-1, read-out: TGI) of 31.7 µM. It also gave a GI50 (OVCAR-5; OVCAR-5) of 10.1 µM, a CC50 (OVCAR-5; OVCAR-5, read-out: LC50) of 50.9 µM and an IC (TGI) (OVCAR-5; OVCAR-5, read-out: TGI) of 22.7 µM. For the same compound, the GI50 (OVCAR-8; OVCAR-8) was 10.3 µM, the CC50 (OVCAR-8; OVCAR-8, read-out: LC50) was 53.3 µM and the IC (TGI) (OVCAR-8; OVCAR-8, read-out: TGI) was 13.5 µM. It also gave a GI50 (SK-OV-3; SK-OV-3) of 21 µM, a CC50 (SK-OV-3; SK-OV-3, read-out: LC50) of over 100 µM and an IC (TGI) (SK-OV-3; SK-OV-3, read-out: TGI) of 53.7 µM. It also gave a CC50 (A549/ATCC) of 67.2 µM, a GI50 (NCI-H23; NCI-H23) of 12.8 µM and a CC50 (NCI-H23; NCI-H23, read-out: LC50) of 67.1 µM. For the same compound, the IC (TGI) (NCI-H23; NCI-H23, read-out: TGI) was 29.4 µM, the GI50 (NCI-H522; NCI-H522) was 1.41 µM and the CC50 (NCI-H522; NCI-H522, read-out: LC50) was 7.24 µM. For the same compound, the IC (TGI) (NCI-H522; NCI-H522, read-out: TGI) was 3.2 µM.
